# Experiments:
# [1] = tested on: control CHO-K1 cells; experiment: Changes in intracellular calcium levels on FLIPR, control CHO-K1 cells with only expression vector pAKKO-111H; type: cell-based
# Protocol: (§1) The CHO-K1 cell line (purchased from ATCC) was incubated in HAM F-12 medium (Invitrogen) supplemented with 10% fetal calf serum, unless otherwise indicated. On the day before transfection, the cells were inoculated at 4.5×10^5/10 cm^2 and incubated at 37° C. for 15 hours or more in a CO2 incubator adjusted to 5% CO2 concentration. Using Lipofectamine reagent (Invitrogen), transfection was performed according to modifications of the procedure attached to the reagent. When a 6-well plate was used as the incubator, the transfection was performed as follows. Two tubes each having a 1.5 ml volume were prepared and 100 μl each of Opti-MEM medium (Invitrogen) was dispensed in each tube. Next, 1 μg of the GPR35 expression vector obtained in REFERENCE EXAMPLE 1 and 0.5 μg of Gα15 expression vector (Guthrie cDNA Resource Center) were incorporated into one tube and in another tube, 6 μl of Lipofectamine reagent was charged, which were then mixed together. The mixture was settled for 20 minutes at room temperature. To the solution, 800 μl of Opti-MEM medium was added and the resulting solution mixture for transfection was added to the CHO-K1 cells, which had been previously washed with Opti-MEM medium. The cells were then incubated in a CO2 incubator for 6 hours. After the incubation, the cells were rinsed with PBS (Invitrogen), then detached by 0.05% trypsin-EDTA solution (Invitrogen) and recovered by centrifugal operation. The cells obtained were counted and diluted to 5×10^4 cells per 100 μl of the medium. The dilution was dispensed to a black walled 96-well plate (Costar) at 100 μl per well, followed by incubation overnight in a CO2 incubator. Various test samples were added to the CHO-K1 cells, in which the receptor was transiently expressed, by the transfection procedure described above, whereby changes in intracellular calcium levels were assayed on a FLIPR (Molecular Device).
# (§2) To assay the changes in intracellular calcium levels on FLIPR, the following pretreatment was made. First, an assay buffer was prepared to add fluorescence dye Fluo-3AM (DOJIN) to the cells, or to wash the cells immediately before the FLIPR assay. A solution was prepared by adding 20 ml of 1M HEPES (pH 7.4) (DOJIN) to 1000 ml of HBSS (Invitrogen) (hereinafter HBSS/HEPES solution). To the solution, there was added 10 ml of a solution obtained by dissolving 710 mg of Probenecid (Sigma) in 5 ml of 1N NaOH and further adding 5 ml of HBSS/HEPES solution thereto and mixing them. The resulting solution was used as an assay buffer. Next, 50 μg of Fluo-3AM was dissolved in 21 μl of DMSO (DOJIN), and an equal volume of 20% pluronic acid (Molecular Probes) was added to the solution. After mixing them, the mixture was added to 10.6 ml of an assay buffer supplemented with 105 μl of fetal calf serum to give a fluorescence dye solution. After the medium for the transfected CHO-K1 cells was removed, the fluorescence dye solution was immediately dispensed at 100 μl each per well and incubation was carried out in a CO2 incubator for an hour to take up the fluorescence dye into the cells. The incubated cells were washed with the assay buffer described above and set on FLIPR. Test samples to be added to the receptor-expressed CHO-K1 cells were prepared using the assay buffer and simultaneously set on FLIPR.
# After the pretreatment described above was made, changes in intracellular calcium levels by the addition of various test samples were assayed on FLIPR. […]
# [2] = target: GPR35 (Homo sapiens, UniProt Q9HC97, S294R); experiment: Changes in intracellular calcium levels on FLIPR, CHO-K1 cells transiently co-expressing GPR35 and Gα15; type: cell-based; parameters: The resulting fragment (ca. 1 kb) was introduced into vector pAKKO-111; expressed in transfected cells; host or cells: CHO-K1 (ATCC), transient transfection; settings: Fluo-3AM, 0.3-10 μM shown for DNQX and ellagic acid (FIG. 1, 2)
# Protocol: as §1, §2
# After the pretreatment described above was made, changes in intracellular calcium levels by the addition of various test samples were assayed on FLIPR.
# [3] = tested on: GPR35-GFP fusion protein; experiment: Internalization of GPR35-GFP fusion protein expressed on CHO cells (Cellomics ArrayScan, MemCyto Above Threshold); type: cell-based, human; settings: CHO cells stably expressing GPR35-GFP; 3 μM, 10 μM and 30 μM
# Protocol: The CHO cell line, in which a protein wherein GFP was fused to the C-terminus of human GPR35 was stably expressed, was established using an expression plasmid for animal cells by publicly known methods. In assaying internalization of the protein, the cells at growth phase were plated at the concentration of 40000 cells/well on a 96-well plate (Packard, View-Plate™-96, Black), and cultured overnight at 37° C. under 5% CO2. First, the cells in the well were washed with assay buffer (HBSS (Gibco/BRL) supplemented with 0.1% bovine serum albumin (BSA)). Then, 100 μl each of the assay buffers containing 3 μM, 10 μM and 30 μM DNQX and NBQX was added to each well, followed by incubation at 37° C. under conditions of 5% CO2. Subsequently, 100 μl/well of a cell fixation solution (4% paraformaldehyde-containing PBS (free of Ca/Mg)) was added to the well, which was allowed to stand at room temperature for 30 minutes. The cell fixation solution was removed. […] The intracellular localization of GPR35-GFP fusion protein was assessed using MemCyto Above Threshold (cell ratio (unit %) over a specific parameter (MemCyto Intensity Ratio) representing the ratio of membrane/cytoplasmic localization of the protein to all cells in the well), which is one of the parameters of the GPCR Signaling Assay Protocol attached to the above system.
# Sequence of GPR35 (Q9HC97 whole entry S294R, the tested form may be a part): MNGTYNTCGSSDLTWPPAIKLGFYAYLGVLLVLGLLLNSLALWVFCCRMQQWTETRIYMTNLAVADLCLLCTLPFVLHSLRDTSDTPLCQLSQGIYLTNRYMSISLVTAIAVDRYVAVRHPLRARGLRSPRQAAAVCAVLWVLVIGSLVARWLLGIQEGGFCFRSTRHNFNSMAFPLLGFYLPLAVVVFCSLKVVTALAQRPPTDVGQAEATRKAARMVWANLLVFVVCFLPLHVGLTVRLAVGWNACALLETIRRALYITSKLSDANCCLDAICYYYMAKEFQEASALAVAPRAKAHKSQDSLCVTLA
Structure (SMILES),response (increased intracellular calcium levels) in control cells [1],response (increased intracellular calcium levels) [2],activity of inducing internalization of the GPR35-GFP protein (decreased MemCyto Above Threshold value) [3]
"O=C1N=c2cc([N+](=O)[O-])c([N+](=O)[O-])cc2=NC1=O [DNQX, 6,7-dinitroquinoxaline-2,3-dione]",not observed,dose-dependently responded (increased intracellular calcium levels),dose-dependent internalization
"NS(=O)(=O)c1cccc2c3c(cc([N+](=O)[O-])c12)=NC(=O)C(=O)N=3 [NBQX, 6-nitro-7-sulfamoylbenzo[f]quinoxaline-2,3-dione]",not observed,dose-dependently responded (increased intracellular calcium levels),dose-dependent internalization

# From US7892755B2, “Screening method” (Takeda Pharmaceutical Company Limited, priority 2004, dated 2011)
